The source of these data is patent publication US7135481B2, “Naphthalimide compositions and uses thereof” (ChemGenex Pharmaceuticals, Inc., priority 2000, dated 2006).

The structures appear in SMILES notation.

In series [1] the test system is RIF-1 murine fibrosarcoma. In words: Example 2: RIF-1 tumor growth delay (TVQT), amonafide alone and with other chemotherapeutics. The following applies: for TVQT: single agent, mean ± SE.
Method: Animals: Female C3H mice (Charles River Laboratories, Holister, Calif.), approximately 3 months old, were used for the study. The average body weight was approximately 25 g. Animals were maintained in isolator cages on a 12-hour light-and-dark cycle. Food and water were available ad libitum.
Tumors: The RIF-1 murine fibrosarcoma cell line was maintained in in vitro culture (Waymouth medium supplemented with 20% fetal bovine serum) at 37 C. in a humidified 5% CO2 incubator. Log-phase RIF-1 cells were trypsinized and harvested from cell culture flasks to yield a concentration of 4×10^6 cells/mL, then injected intradermally in a volume of 50 μL (equivalent to 2×10^5 cells per injection) into both flanks of each mouse. Nine days later, when tumors reached approximately 100 mm^3 in size, the animals were randomized to different treatment groups.
Four to five animals were assigned to each treatment group. The intrperitoneal injection volume was 100 μL. The oral administration volume was 100 μL. Combination treatments using two test agents were administered as two separate injections, with the second one following the first either immediately or after 30 minutes.
Tumor volume (cubic millimeters, mm^3) was calculated according to the formula: V=π/6×D1×D2×D3 in which D1–3 are perpendicular diameters measured in millimeters (mm).
Tumor volume quadrupling time (TVQT), defined as the time required for a tumor to grow to four times (4×) its initial volume (at the time of treatment), was used as a study endpoint. The TVQT was determined for each treatment group and expressed in days as the mean±standard error (SE).
The subject of series [2] is murine fibrosarcomas (RIF-1 cells). Kind of series: Example 1: tumor growth delay (TVQT) of RIF-1 fibrosarcoma, amonafide with cisplatin. In kind it is in vivo, C3H mice. The note with it: single agent. How it is done: When the tumors reached a volume of approximately 100 mm3, the mice were randomly assigned to each experimental group (4 mice per group).
The chemopotentiator, amonafide, was obtained from NCI and was made to the appropriate concentration in DMSO. […] The compositions were injected systemically (i.e., intraperitoneally, i.p.), in a volume of 100 microliters. For the treatment of group 3, the chemopotentiator, amonafide, was injected 30 minutes prior to the injection of cisplatin. After treatment, the growth of the tumors was monitored three times per week by caliper measurements of three perpendicular diameters of the tumor and calculation of tumor volume from the formula: V=π/6×D1×D2×D3, where D1-3 represents tumor diameters, in mm.
The tumors were followed until they reached a size of four times their day zero treatment volume (TVQT), or up to 30 days after treatment, whichever came first. The data is expressed as the “tumor volume quadrupling time” (TVQT) mean and as the “delay.” Mean TVQT is the mean days required for individual tumors to grow to four times the tumor volume at the initial treatment day. The “delay” is the median of days required for a tumor to grow to four times the mean size of the treated group, minus the median of days required to grow to four times the mean size of the control group. The data is also expressed as the ratio of the tumor volume quadrupling time of the treated tumor over the untreated control group (TVQT/CTVQT). Increasing values of this ratio indicate increased antitumor response.

For series [3] the test system is unchanged. In words: Example 3: RIF-1 tumor growth delay (TGD), amonafide with camptothecin, genistein or rosmarinic acid. The following applies: single agent. In kind it is in vivo, C3H mice. How it is done:
Transplantable experimental murine fibrosarcomas (2×10^5 RIF-1 cells) were grown intradermally in the flanks of 3 month old female C3H mice (Charles River, Holister, Calif.). When the tumors reached a volume of −100 mm^3, the mice were randomly assigned to each experimental group (4 mice per group).
Amonafide was manufactured by Penta for ChemGenex and was made to the appropriate concentration in saline. […] The compositions were injected systemically (i.e., intraperitoneally, i.p.), in a volume of 100 μl. For the treatment of groups 3, 5 and 7, amonafide, was injected immediately prior to the injection of camptothecin, genistein or rosmarinic acid. After treatment, the growth of the tumors was monitored three times per week by caliper measurements of three perpendicular diameters of the tumor and calculation of tumor volume from the formula: V=π/6×D1×D2×D3, where D1-3 represents tumor diameters, in mm.
The data is also expressed as the tumor growth delay (TGD) median which is the median days to 4× the tumor volume from the initial treatment day, and as the delay which is the median days to 4× of the treated group minus the median days to 4× of the control group. The T/C ratio is the ratio of days to 4× of the treated tumors over the days to 4× of the untreated control tumors. Increasing values indicate increased antitumor response.
The tumors were followed until they reached 4 times their Day 0 treatment volume or up to 30 days after treatment (tumor growth delay, TGD), whichever came first. The data is also expressed as the ratio of the tumor growth delay of the treated tumor (TGD) over the untreated control group (CTGD). Increasing values of this ratio indicate increased antitumor response.

A short description of series [4]: Example 2: animal deaths after treatment. In kind it is in vivo, C3H mice. The following applies: formulated in DMSO at 12.5 mg/mL, IP. How it is done:
The average body weight was approximately 25 g. […] Food and water were available ad libitum.
The intrperitoneal injection volume was 100 μL. The oral administration volume was 100 μL.

On to `O=c1[nH]cc(F)c(=O)[nH]1` [5-Fluorouracil], for which the TVQT in series [1] (15 mg/Kg IP) turned out to be 6.7 days; in series [1] (15 mg/Kg IP, listed as Fluorouracil/Saline), 6.7 ± 0.4 days; in series [1] (30 mg/Kg IP), 13.6 days; in series [1] (30 mg/Kg IP, listed as Fluorouracil/Saline) it was 13.6 ± 1.9 days.

Consider `CN(C)CCN1C(=O)c2cccc3cc(N)cc(c23)C1=O` [Amonafide, 5-amino-2-[(dimethylamine)ethyl]-1H-benz[de-]isoquinoline-1,3-(2H)-dione], for which, in series [2] (50 mg/kg i.p.), the “Delay” value came to 2.94 days, the “Mean TVQT ± S.E.” value is on record as 9.7 ± 0.6 days, the “Median (TVQT)” value was determined as 9.0 days and the TVQT/CTVQT was 1.5. In addition, in series [3] (30 mg/kg i.p.), the “Delay” value is -0.36 days, the “Median (TGD)” value is listed as 7.0 days, the “TGD ± S.E.” value amounted to 7.0 ± 0.4 days and the TGD/CTGD is given as 0.9. For the same compound, the animal deaths entry in series [4] is “Two of four mice died”. The TVQT in series [1] (30 mg/Kg IP) was determined as 7.3 days. In series [1] (30 mg/Kg IP, listed as Amonafide-Penta/Saline), this compound returned a TVQT of 7.3 ± 0.2 days. Also, the “antitumor activity, summary in words (versus amonafide alone and the individual test agents)” value in series [1] (intraperitoneal amonafide, alone or in combination) is “had antitumor activity”.

Turning to `CC[C@@]1(O)C(=O)OCc2c1cc1n(c2=O)Cc2cc3ccccc3nc2-1` [Camptothecin], in series [3] (6 mg/kg i.p.), the “Delay” value turned out to be 5.45 days, the “Median (TGD)” value was 12.8 days, the “TGD ± S.E.” value came to 12.9 ± 0.5 days and the TGD/CTGD was 1.7.

Turning to `N.N.[Cl][Pt][Cl]` [Cisplatin, cis-diamminedichloroplatinum II], in series [2] (4 mg/kg i.p.), the “Delay” value amounted to 2.10 days, the “Mean TVQT ± S.E.” value stood at 8.4 ± 0.3 days, the “Median (TVQT)” value is 8.1 days and the TVQT/CTVQT was found to be 1.3. Besides, the TVQT in series [1] (4 mg/Kg IP) is reported as 9.2 days. In series [1] (4 mg/Kg IP, listed as Cisplatin/WFI), the TVQT came out at 9.2 ± 0.4 days.

For the compound `COc1cc2c(c(OC)c1OC)-c1ccc(OC)c(=O)cc1[C@@H](NC(C)=O)CC2` [Colchicine, colchicine], the TVQT worked out at 6.3 days in series [1] (10 mg/Kg PO) and 6.3 ± 0.3 days in series [1] (10 mg/Kg PO, listed as Colchicine/Saline).

On to `COc1cc(/C=C/C(=O)CC(=O)/C=C/c2ccc(O)c(OC)c2)ccc1O` [Curcumin], for which the TVQT in series [1] (25 mg/Kg IP) stood at 9.7 days; in series [1] (25 mg/Kg IP, listed as Curcumin/DMSO), 9.7 ± 1.1 days.

`COc1cc([C@@H]2c3cc4c(cc3[C@@H](O[C@@H]3O[C@@H]5CO[C@@H](C)O[C@H]5[C@H](O)[C@H]3O)[C@H]3COC(=O)[C@H]23)OCO4)cc(OC)c1O` [Etoposide]: the TVQT in series [1] (10 mg/Kg IP) came to 8.5 days; in series [1] (10 mg/Kg IP, listed as Etoposide/Saline), 8.5 ± 0.5 days.

With `O=c1c(-c2ccc(O)cc2)coc2cc(O)cc(O)c12` [Genistein], in series [3] (60 mg/kg i.p.), the “Delay” value was 0.78 days, the “Median (TGD)” value is on record as 8.1 days, the “TGD ± S.E.” value is reported as 7.9 ± 0.4 days and the TGD/CTGD was 1.1.

With `COC(=O)C[C@](O)(CCCC(C)(C)O)C(=O)O[C@@H]1C(OC)=C[C@]23CCCN2CCc2cc4c(cc2[C@H]13)OCO4` [Homoharringtonine, homoharringtonine], the TVQT in series [1] (4 mg/Kg IP, listed as Homoharringtonine/WFI) came to 8.5 ± 0.5 days; in series [1] (4 mg/Kg IP, listed as homoharringtonie) it was 8.5 days.

As to `CC(=O)O[C@H]1C(=O)[C@@]2(C)[C@H]([C@H](OC(=O)c3ccccc3)[C@]3(O)C[C@H](OC(=O)[C@H](O)[C@@H](NC(=O)c4ccccc4)c4ccccc4)C(C)=C1C3(C)C)[C@]1(OC(C)=O)CO[C@@H]1C[C@@H]2O` [Paclitaxel], the TVQT in series [1] (10 mg/Kg IP) is 7.9 days; in series [1] (10 mg/Kg IP, listed as Paclitaxel/Cremaphor EL) it was 7.9 ± 0.3 days.

With `O=C(/C=C/c1ccc(O)c(O)c1)O[C@H](Cc1ccc(O)c(O)c1)C(=O)O` [Rosmarinic Acid], in series [3] (20 mg/kg i.p.), the “Delay” value amounted to 0.46 days, the “Median (TGD)” value was found to be 7.8 days, the “TGD ± S.E.” value was determined as 8.4 ± 0.5 days and the TGD/CTGD turned out to be 1.1.

In the case of `CC[C@]1(O)C[C@@H]2CN(CCc3c([nH]c4ccccc34)[C@@](C(=O)OC)(c3cc4c(cc3OC)N(C)[C@H]3[C@@](O)(C(=O)OC)[C@H](OC(C)=O)[C@]5(CC)C=CCN6CC[C@]43[C@@H]65)C2)C1` [Vinblastine], the TVQT is on record as 8.6 days in series [1] (2 mg/Kg IP) and 8.6 ± 0.4 days in series [1] (2 mg/Kg IP, listed as Vinblastine/Saline).
